# Reference: patent US12637662B2, “Cells, islets, and organoids that evade immune detection and autoimmunity, methods of production and use thereof” (SALK INSTITUTE FOR BIOLOGICAL STUDIES, priority 2018, dated 2026)
# “Also recorded” adds a separate entry of the source.
# What was measured:
# [1] = test system: human iPSC derived cells (islet-like organoids, MCS, HILOs); assay: Glucose-stimulated insulin/c-peptide secretion assay (GSIS, ELISA); assay type: cell-based; details: 3 mM vs 20 mM glucose
# Description: Insulin release from intact islets was monitored using batch incubation methods as reported by E. Yoshihara et al., 2016, Cell metabolism, 23:622-634. Briefly, overnight-cultured, isolated pancreatic islets (RPMI-1640 medium supplemented with 10% (v/v) fetal bovine serum and 1% (v/v) Antibiotic-Antimycotic (Gibco)) were pre-cultured at 37° C. for 30 minutes in Krebs-Ringer bicarbonate buffer (KRBB) containing 129.4 mM NaCl, 3.7 mM KCl, 2.7 mM CaCl2), 1.3 mM KH2PO4, 1.3 mM MgSO4, 24.8 mM NaHCO3 (equilibrated with 5% CO2, 95% O2, pH 7.4), 10 mM HEPES and 0.2% (v/v) BSA (fraction V, Sigma) (KRBH) with 3 mM glucose). […] After 30 minutes, the islets were pelleted by centrifugation and secreted insulin levels were determined in the medium by Enzyme Linked Immunosorbent Assay (ELISA), (Rat/mouse Insulin ELISA KIT (Millipore) and Human Insulin ELISA KIT or ultrasensitive human c-peptide ELISA Kit (Millipore) for mouse and human islets, respectively). […] After 30 minutes, the cells were pelleted by centrifugation and c-peptide levels were determined in the supernatant medium using the human c-peptide ELISA KIT (Millipore). […]
# Insulin release from intact islets was monitored using batch incubation methods (Yoshihara et al., 2010, Nat. Commun. 1:127). […] After 30 min, the cells were pelleted by centrifugation and c-peptide levels were determined by human c-peptide ELISA KIT (Millipore).
# [2] = test system: human islet-like organoids; assay: Proinsulin-NanoLuc Gaussia luciferase insulin secretion assay in single or pooled islets/organoids; assay type: cell-based; details: pooled organoids (10 to 100 per assay)
# Description: Recent studies have reported the generation of insulin producing β-like cells from hESC and hiPSC capable of secreting insulin in response to glucose (Pagliuca et al., 2014, Cell, 159, 428-439; Rezania et al., 2014, Nature Biotechnology, 32(11):1121-33; Russ et al., 2015, FMBO Journal, 34:1759-1772). […] To date, efforts have focused on the independent generation of insulin producing β-like cells, glucagon producing α-like cells, and somatostatin producing 6-like cells from hPSC. However, these approaches lack the supporting cells important for regulation, such as mesenchymal cells, adipose cells, and vasculature cells. Since the 3D structure of islets naturally enhances their function, these missing cellular components may compromise the functionality of islet-like cells clusters. […] To test this idea, single organoid proinsulin secretion assays were performed. Human islet-like organoids generated by methods described herein are morphologically identical with human islet.
# Mouse islets, human islets and human islets like organoids were plated in their respective growth media with 10 μg/ml Polybrene® polymer (Santacruz). Viruses were then added. After overnight culture, cells were placed in fresh growth media. […]
# [3] = biological target: T1, CD80 (B7-1) (Homo sapiens, UniProt P33681); details: cited from earlier work
# T1 sequence (P33681 35-288): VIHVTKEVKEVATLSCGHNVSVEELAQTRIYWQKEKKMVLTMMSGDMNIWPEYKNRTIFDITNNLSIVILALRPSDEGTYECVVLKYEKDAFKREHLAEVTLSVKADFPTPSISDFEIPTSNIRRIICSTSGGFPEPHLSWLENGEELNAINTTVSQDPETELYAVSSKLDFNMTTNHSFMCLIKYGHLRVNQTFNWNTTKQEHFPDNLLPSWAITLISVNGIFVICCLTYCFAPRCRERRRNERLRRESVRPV
# [4] = biological target: PD-1 (Homo sapiens, UniProt Q15116); details: read-out: Kd (dissociation constant), binding to PD-1; cited from earlier work
# PD-1, sequence (Q15116 25-288): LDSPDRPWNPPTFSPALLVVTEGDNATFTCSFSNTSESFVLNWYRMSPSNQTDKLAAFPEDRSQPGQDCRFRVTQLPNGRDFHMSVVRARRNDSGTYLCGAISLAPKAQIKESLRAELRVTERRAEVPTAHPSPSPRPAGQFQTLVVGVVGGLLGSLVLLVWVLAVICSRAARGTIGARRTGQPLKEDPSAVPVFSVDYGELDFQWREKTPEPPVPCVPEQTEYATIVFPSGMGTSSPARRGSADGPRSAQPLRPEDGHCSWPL
# [5] = biological target: T2, CD86 (B7-2) (Homo sapiens, UniProt P42081); details: cited from earlier work
# T2 sequence (P42081 24-329): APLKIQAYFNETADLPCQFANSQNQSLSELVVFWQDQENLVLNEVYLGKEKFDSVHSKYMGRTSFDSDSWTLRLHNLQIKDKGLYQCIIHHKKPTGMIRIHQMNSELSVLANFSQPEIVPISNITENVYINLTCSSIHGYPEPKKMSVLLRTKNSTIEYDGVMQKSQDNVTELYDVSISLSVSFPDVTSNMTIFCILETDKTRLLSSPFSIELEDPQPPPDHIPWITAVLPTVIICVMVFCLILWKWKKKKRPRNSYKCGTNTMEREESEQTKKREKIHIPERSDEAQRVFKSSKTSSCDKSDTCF
# [6] = test system: chromatin accessibility in HILO cells; assay: ATAC-Seq chromatin accessibility in HILOs; assay type: cell-based, human
# Description: […] D. Buenrostro et al., 2015, Current Protocols in Molecular Biology, 109:21-29. Reads were aligned by Bowtie to hg19, and peaks were called by HOMER using default settings. Differential peaks and motif analyses from 2 biological duplicates were identified using HOMER essentially as instructed (see, e.g., S. Heinz et al., 2010, J. Mol. Cell, 38:576-589). Detailed methods for HOMER are freely available, e.g., at http://http://homer.salk.edu/homer/. Briefly, the program searches against the target and background sequences for enrichment of known motifs, and returns motifs enriched with a threshold of 1.5-fold change and a p-value of less than 0.05. Promoter regions, defined as 1 kilobase (kB) upstream from the transcription start site, of genes with enhanced chromatin accessibility upon Wnt4 treatment, were interrogated for enriched motifs of 8-16 bp using HOMER motif analysis.
# [7] = test system: PD-L1 expression in human islets; assay: PD-L1 induction by IFNγ in human islets; assay type: cell-based; details: 12 hours after IFNγ treatment (FIG. 12F)
# [8] = test system: PD-L1 expression in wHILOs; assay: PD-L1 induction by IFNγ in wHILOs; assay type: cell-based, human
# Description: For acute treatment, wHILOs were treated with 10 ng/ml IFNγ in the differentiation medium (S5 with 10 μM Trolox, 2 μM R428, 1 mM N-acetyl cysteine, 10 μM Alk5 inhibitor II, 1 μM T3 and 100 ng/ml rhWnt4 (recombinant human Wnt4)) for 2 hours. Cells were then washed twice with PBS prior to culturing in differentiation medium (S5 with 10 μM Trolox, 2 μM R428, 1 mM N-acetyl cysteine, 10 μM Alk5 inhibitor II, 1 μM T3 and 100 ng/ml rhWnt4) (single pulse stimulation). IFNγ exposure was repeated 3 times with washing and 24 hours resting time in differentiation medium (S5 with 10 μM Trolox, 2 μM R428, 1 mM N-acetyl cysteine, 10 μM Alk5 inhibitor II, 1 μM T3 and 100 ng/ml rhWnt4) between each IFNγ exposure (MPS stimulation) to generate wHILO^ie. After the final IFNγ pulse, cells were cultured in the tissue culture incubator for a week prior to the RNA-seq analyses (FIGS. 14A-14C), ATAC-seq analyses (FIG. 14D) and transplantation into STZ-induced diabetic C57BL6J mice (FIG. 5J) or humanized mice (FIG. 15B).
# Total RNA was extracted using TRIzol reagent (Invitrogen) and RNeasy KIT (Qiagen). Reverse transcription was performed with a SuperScript III First-Strand Synthesis System kit (Invitrogen) or PrimeScript RT reagent kit (TAKARA). Real time quantitative RT-PCR (qPCR) was performed using SYBR Green (Bio-Rad).
# [9] = test system: INS-1 cells; assay: Proinsulin-NanoLuc Gaussia luciferase insulin secretion assay in INS-1 cells; assay type: cell-based, rat; details: 20 mM glucose with Exendin-4
# Description: It was previously published that a reporter construct, in which the Gaussia luciferase is placed within the c-peptide portion of proinsulin accurately measures insulin secretion without affecting β-cell function (Burns et al., 2015, Cell metabolism, 21, 126-137). Using a lentiviral system, INS-1 cells stably expressing this Gaussia luciferase were generated. Luciferase secretion from INS-1 cells stably expressing Proinsulin-NanoLuc increased with high-glucose (20 mM), high glucose with Exendin-4 (G20 mM+Ex4), and the depolarizing agent, potassium chloride, confirming the utility of this reporter system. Next, the usefulness of this reporter to measure insulin secretion in mouse or human islets transiently infected with the Proinsulin-NanoLuc reporter was evaluated. Luciferase secretion in response to 20 mM high glucose was detected in both transiently infected mouse and human islets were detected. Importantly, the assay sensitivity was sufficient that insulin secretion could be qualified at the level of single islets. […] (See, e.g., WO 2017/205511). […]
# [10] = test system: human islet-like organoids; assay: Amyloid polypeptide (hIAPP) toxicity in human islet-like organoids; assay type: cell-based; details: 24 hours
# Description: The generation of functional human organs according to methods described herein provides new strategies for drug-screening and disease modeling. Specifically, functional organoids can be used as models of type 2 diabetes for drug screening.
compound,measurement,setting,value
"Oc1nc(-c2ccc(C(F)(F)F)cc2)nc2c1CSCC2 [XAV939, reference compound]",glucose-stimulated insulin (c-peptide) secretion in vitro,[1],not blocked
GLP-1: incretin used for co-stimulation of insulin secretion,GSIS by proinsulin luciferase secretion assay,[2],enhanced GSIS
PD-L2: related molecule that shares PD-1 as a receptor,affinity for CD80 (in words),[3],does not have affinity
same,Kd,[4],140 nM
same,affinity for CD86 (in words),[5],does not have affinity
"IFNγ: recombinant human IFNγ (R&D Systems, 285-IF) used to induce PD-L1 expression","chromatin accessibility at PD-L1, IRF9, JUNB, JUND loci",[6]; after MPS IFNγ treatment,persistent increases
same,"chromatin accessibility at IRF1, STAT1",[6]; after acute (12 h) IFNγ treatment,not sustained
same,GSIS functionality after MPS IFNγ,[1]; wHILOs,not compromised
same,increase in PD-L1 expression,[7],approximately 20 fold
same,duration of sustained PD-L1 expression after MPS,"[8]; at least 3 pulses, 10 ng/ml, 2 hours per pulse",at least 7 days
same,PD-L1 expression after repeated short IFNγ exposures (MPS) (in words),[8]; multiple pulse stimulation,high levels of PD-L1 protein expression; also recorded: sustained PD-L1 expression
same,PD-L1 induction after single IFNγ exposure (in words),[8]; single / acute exposure,rapidly and robustly induced; also recorded: maximum PD-L1 induction; also recorded: transient
Exendin-4,luciferase secretion (insulin secretion reporter),[9],increased
"hIAPP: amyloid polypeptide, an inducer of β cell loss in type 2 diabetic patients (KCNTATCATQRLANFLVHSSNNFGAILSSTNVGSNTY; Islet amyloid polypeptide; UniProt P10997 34-70, looked up)",cell cycle arrest,[10],dose-dependently induced G0/G1 arrest
